Test results reported in US5639751A, “N-acyl-2,3-benzodiazepine derivatives for treating acute and chronic neurodegenerative disorders” (priority 1990, dated 1997).

What was measured:
[1] = test system: male CFLP mice; assay: Anticonvulsive effect in mice, strychnine; assay type: in vivo; conditions: Mus musculus, po, read-out: ED50 p.o., Strychnine
Description: (§1) The anticonvulsive effect of the compounds of the formula (I) was measured by using the electroshock test [J. Pharmacol. Exp. Ther. 106, 319 (1952)], furthermore by using various chemical agents such as pentetrazole [J. Pharmacol. Exp. Ther. 108, 168 (1953)], strychnine [J. Pharmacol. Exp. Ther. 129, 75 (1960)], bemegride, nicotine and 4-aminopyridine. The test compounds were orally administered in 3 doses, to 10 male CFLP mice per dose.

[2] = test system: male CFLP mice; assay: Anticonvulsive effect in mice, bemegride; assay type: in vivo; conditions: Mus musculus, po, read-out: ED50 p.o., Bemegride
Description: as §1

[3] = test system: male CFLP mice; assay: Anticonvulsive effect in mice, nicotine; assay type: in vivo; conditions: Mus musculus, po
Description: as §1

[4] = test system: AMPA receptors; assay: Inhibition of synaptic field potentials in rat neocortex slices; assay type: cell-based
Excerpt: Similarly as in hippocampal CA1 area, glutamate is the main excitatory transmitter in the neocortex, and dominantly AMPA receptors are involved in mediation of synaptic responses evoked by stimulation of the white matter and recorded from the area adjacent to the site of stimulation [J. Neurophysiol. 64, 1282 (1990)]. The inhibitory effect on such field potentials was studied in rat neocortex slices, maintained in Vitro, according to Fletcher et al. [Br. J. Pharmacol. 95, 585 (1988)].

[5] = test system: CFLP mice; assay: Inclined screen test in mice; assay type: in vivo; conditions: Mus musculus, ip, read-out: ED50 i.p., inclined screen test
Excerpt: In Randall's inclined screen test [J. Pharmacol. Exp. Ther. 129, 163 (1960)] the compounds were applied in 3 i.p. doses to 10 CFLP mice per dose.

[6] = test system: NMDA; assay: NMDA evoked spreading depression in isolated chicken retina; assay type: cell-based; conditions: spreading depression evoked by 100 μM NMDA
Description: (§2) Anti-kainate and -AMPA effects were investigated in the in vitro retinal spreading depression model [Brain Res. 607, 189 (1993)]. AMPA/kainate antagonists prolong the latency of the development of spreading depression evoked. by kainate (5 μM), or AMPA (5 μM). In some cases the effect on spreading depression evoked by 100 μM NMDA was also studied to clarify the selectivity.

[7] = test system: [^3 H]-AMPA specific binding sites in CNS membrane preparations; conditions: Neuroreport 5, 93 (1993); cited from earlier work
[8] = test system: AMPA receptor; assay: Inhibition of quisqualate induced DC potentials in rat neocortex slices; assay type: cell-based; conditions: concentration range of 10-50 μM
Description: The AMPA antagonist effect was tested in rat neocortex slices by using a method similar to that of Harrison and Simmonds [Br. J. Pharmacol. 84, 381 (1985)].

[9] = test system: male CFLP mice; assay: Anticonvulsive effect in mice, 4-aminopyridine; assay type: in vivo; conditions: Mus musculus, po, read-out: ED50 p.o., 4-AP (4-aminopyridine)
Description: as §1

[10] = Kainate induced spreading depression in isolated chicken retina; assay type: cell-based; conditions: kainate (5 μM)
Description: as §2

[11] = test system: NMDA; assay: NMDA induced responses (DC potentials) in rat neocortex slices; assay type: cell-based
[12] = test system: cats; assay: Effects on spinal root reflex potentials in spinalized and immobilized cats; assay type: in vivo; conditions: Felis catus, iv
Description: The effect of compound of Example 15(16) on the spinal root potentials in cats was tested in spinalized and immobilized animals [Neuropharmacology 21, 161 (1989)].

[13] = test system: male CFLP mice; assay: Anticonvulsive effect in mice, pentetrazole; assay type: in vivo; conditions: Mus musculus, po, read-out: ED50 p.o., Pentetrazole
Description: as §1

[14] = test system: AMPA/kainate receptors; assay: Inhibition of synaptic field potentials (population spikes) in rat hippocampal slices; assay type: cell-based; conditions: population spikes in CA1, after 30 min. perfusion
Description: Synaptic potentials in the CA1 area of hippocampus evoked by stimulation of the Schaffer collaterals are mediated by AMPA/kainate receptors. […] Lett. 92, 64 (1988)].
The inhibition of population spikes in CA1 was studied in rat hippocampal slices after 30 min. perfusion application of the test compounds.

[15] = AMPA induced spreading depression in isolated chicken retina; assay type: cell-based; conditions: AMPA (5 μM)
Description: as §2

[16] = test system: [^3 H]-kainate specific binding sites in CNS membrane preparations; conditions: Neuroreport 5, 93 (1993); cited from earlier work
[17] = test system: mice; assay: Rotarod test in mice; assay type: in vivo; conditions: Mus musculus, ip, read-out: ED50 i.p., rotarod test
Excerpt: The rotarod test was used to measure muscular tone and motor co-ordination [J. Am. Pharm. Assoc. 46, 208 (1957)].

[18] = test system: cats; assay: Effect on spinal (polysynaptic) flexor reflexes in chloralose anaesthetized cats; assay type: in vivo; conditions: Felis catus, iv
Excerpt: Res. Comm. 20, S1, 141 (1988)].

[19] = test system: male CFLP mice; assay: Anticonvulsive effect in mice, electroshock test; assay type: in vivo; conditions: Mus musculus, po, read-out: ED50 p.o., ES (electroshock)
Description: as §1

For CC1=NN=C(c2ccc(N)cc2)c2cc3c(cc2C1)OCO3 [GYKI 52466, 1-(4-aminophenyl)-4-methyl-7,8-methylenedioxy-5H-2,3-benzodiazepine, reference compound], the ED50 [1] was 87 mg/kg, the ED50 [2] was 73 mg/kg and the ED50 [3] was 70 mg/kg. For the same compound, the IC50 [4] was 30 µM, the “Inhibition of induced field potentials in % of control” value (“Inhibition … in % of control” below) ([4]; concentration 10 μM) was 22% and the “Inhibition … in % of control” value ([4]; concentration 20 μM) was 39%. For the same compound, the “Inhibition … in % of control” value ([4]; concentration 40 μM) was 62%, the “Inhibition … in % of control” value ([4]; concentration 80 μM) was 73% and the ED50 [5] was 47 mg/kg. The “NMDA antagonist effect, times weaker than AMPA antagonist effect” value [6] was ≥ 10 times, the “Displacement of [3H]-AMPA from specific binding sites” value [7] was “displace neither” and the “Inhibition of DC-potential changes induced by perfusion of quisqualate” value [8] was “dose-dependently inhibited”. The ED50 [9] was 43 mg/kg, the IC50 [10] was 9.5 µM and the “Effect on the responses induced by NMDA” value [11] was “failed to affect”. The ED50 ([12]; * <20% inhibition at the highest dose applied, read-out: ED50, DRP (dorsal root potential)) was > 4 mg/kg, the ED50 ([12]; * <20% inhibition at the highest dose applied, read-out: ED50, DRR (dorsal root reflex)) was > 4 mg/kg and the ED50 ([12]; read-out: ED50, MSR (monosynaptic ventral root reflex)) was 2.2 mg/kg. It also gave an ED50 ([12]; read-out: ED50, PSR (polysynaptic ventral root reflex)) of 2.3 mg/kg, an ED50 [13] of 115 mg/kg and an IC50 [14] of 31.7 µM. For the same compound, the IC50 [15] was 6.3 µM, the “Displacement of [3H]-kainate from specific binding sites” value [16] was “displace neither” and the ED50 [17] was 24 mg/kg. For the same compound, the ED50 [18] was 0.9 mg/kg and the ED50 [19] was 38 mg/kg.
